The source of these data is ChEMBL document CHEMBL1201862, “PubChem BioAssay data set” (2004).

Test systems include CAKI-1; IGROV-1; OVCAR-8; CCRF-CEM; SF-295; SK-MEL-2; HCC 2998; HT-29; MDA-MB-435; HOP-92; MCF7; OVCAR-4; Malme-3M; Hs-578T; OVCAR-5; PC-3; TK-10; RPMI-8226; UACC-62; SF-539.
Assay in all cases: growth of human tumour cells (NCI), 48 h

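Following 48 hours of exposure in 96-well plates, responses at five concentrations were used to interpolate endpoints linearly. GI50 = concentration required for 50% inhibition of growth.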 Active and inactive are the calls of the source. Rule as the data show it: active = GI50 up to about 1.1 µM and inactive = higher. Where only a bound is given, the exact number is not on record here.

`S=c1[nH]c(=S)c2cc(Sc3ccc4[nH]c(=S)[nH]c(=S)c4c3)ccc2[nH]1`: the GI50 is 36.6 µM (inactive) with CAKI-1; 30 µM (inactive) with IGROV-1; 22 µM (inactive) with OVCAR-8; 25.6 µM (inactive) in the experiment on CCRF-CEM; 22 µM (inactive) in the experiment on SF-295; 45.1 µM (inactive) in the experiment on SK-MEL-2. For the same compound, the GI50 is 37.3 µM (inactive) in the experiment on HCC 2998; 41 µM (inactive) in the experiment with HT-29; 53 µM (inactive) with MDA-MB-435; 32.3 µM (inactive) in the experiment on HOP-92; 59.6 µM (inactive) with MCF7; 23.2 µM (inactive) with OVCAR-4. Also, the GI50 was 55.3 µM (inactive) in the experiment on Malme-3M; 22 µM (inactive) with Hs-578T; > 100 µM (inactive) with OVCAR-5; 52.5 µM (inactive) in the experiment on PC-3; 25.1 µM (inactive) with TK-10; 17.7 µM (inactive) with RPMI-8226. In addition, the GI50 in the experiment with UACC-62 is 20 µM (inactive); in the experiment on SF-539 it was 30.2 µM (inactive).
Regarding `Cc1[nH]nc(C(=O)N/N=C/c2cccs2)c1/N=N\N(C)C`, the GI50 is 5.78 µM (inactive) in the experiment with CAKI-1; 11.1 µM (inactive) in the experiment with IGROV-1; 11.6 µM (inactive) in the experiment with OVCAR-8; 2.52 µM (inactive) with CCRF-CEM; 15.2 µM (inactive) in the experiment on SF-295; 35.2 µM (inactive) in the experiment with SK-MEL-2. Moreover, the GI50 in the experiment with HCC 2998 was 5.06 µM (inactive); in the experiment with HT-29, 3.31 µM (inactive); in the experiment with MDA-MB-435, 23.9 µM (inactive); with HOP-92, 16.3 µM (inactive); in the experiment with MCF7, 3.94 µM (inactive); with OVCAR-4 it was 10.5 µM (inactive). Moreover, the GI50 in the experiment with Malme-3M was 21.4 µM (inactive); with Hs-578T it was 34.5 µM (inactive); with OVCAR-5, 29.7 µM (inactive); with PC-3, 20.1 µM (inactive); with TK-10 it was 23.5 µM (inactive); in the experiment on RPMI-8226 it was 18.3 µM (inactive). Moreover, the GI50 with UACC-62 is 14 µM (inactive); in the experiment on SF-539 it was 13.3 µM (inactive).
On to `CC(C)=CCC[C@@H](C)c1c2nc3ccccc3sc-2c(C)c(=O)c1O`, for which the GI50 with CAKI-1 was 2.82 µM (inactive); in the experiment on IGROV-1, 3.44 µM (inactive); in the experiment with OVCAR-8, 2.94 µM (inactive); with CCRF-CEM, 2.67 µM (inactive); in the experiment on SF-295 it was 3.78 µM (inactive); in the experiment with SK-MEL-2, 9.71 µM (inactive). Further, the GI50 in the experiment on HCC 2998 is 9.66 µM (inactive); in the experiment with HT-29, 2.79 µM (inactive); with MDA-MB-435 it was 10.6 µM (inactive); in the experiment with HOP-92 it was 18.9 µM (inactive); in the experiment with MCF7, 8.3 µM (inactive); in the experiment with OVCAR-4, 6.43 µM (inactive). Moreover, the GI50 in the experiment with Malme-3M is 2.93 µM (inactive); in the experiment with Hs-578T it was 9.66 µM (inactive); with OVCAR-5, 16.7 µM (inactive); in the experiment with PC-3, 8.34 µM (inactive); in the experiment with TK-10, 12.8 µM (inactive); with RPMI-8226, 4.11 µM (inactive). The GI50 in the experiment with UACC-62 is 4.99 µM (inactive); with SF-539, 3.01 µM (inactive).
Take `Oc1c(/N=N/c2ccccc2)c2ccccc2c2ccc3ccccc3c12`: the GI50 in the experiment on CAKI-1 is 48.6 µM (inactive); with IGROV-1, > 100 µM (inactive); with OVCAR-8, 76.6 µM (inactive); in the experiment on CCRF-CEM it was 43.9 µM (inactive); in the experiment with SF-295 it was 50.5 µM (inactive); in the experiment with SK-MEL-2 it was > 100 µM (inactive). The GI50 in the experiment on HCC 2998 was > 100 µM (inactive); in the experiment with HT-29, > 100 µM (inactive); in the experiment with MDA-MB-435 it was > 100 µM (inactive); in the experiment with HOP-92, 38.2 µM (inactive); in the experiment on MCF7 it was > 100 µM (inactive); in the experiment on OVCAR-4, 33.2 µM (inactive). In addition, the GI50 with Malme-3M was 48.3 µM (inactive); in the experiment on Hs-578T, 62.8 µM (inactive); with OVCAR-5 it was > 100 µM (inactive); with PC-3 it was 73.8 µM (inactive); in the experiment with TK-10 it was > 100 µM (inactive); in the experiment on RPMI-8226 it was 45.6 µM (inactive). Moreover, the figures for the GI50 in the experiment with UACC-62 and with SF-539 were 66.1 µM (inactive) and 34.5 µM (inactive), respectively.
As to `C=C1C(=O)O[C@@H]2C[C@@]3(C)CCCC(=C)[C@@H]3C[C@H]12.C=C1C(=O)O[C@@H]2C[C@@]3(C)CCC[C@H](C)C3=C[C@H]12`, the GI50 with CAKI-1 was 1.69 µM (inactive); in the experiment with IGROV-1, 2.72 µM (inactive); with OVCAR-8, 1.6 µM (inactive); in the experiment with CCRF-CEM it was 1.51 µM (inactive); in the experiment with SF-295, 11.5 µM (inactive); with SK-MEL-2 it was 2.09 µM (inactive). In addition, the GI50 is 5.85 µM (inactive) with HCC 2998; 2.12 µM (inactive) with HT-29; 1.54 µM (inactive) in the experiment with MDA-MB-435; 1.9 µM (inactive) in the experiment with HOP-92; 1.73 µM (inactive) with MCF7; 2.7 µM (inactive) with OVCAR-4. The GI50 in the experiment with Malme-3M was 0.731 µM (active); in the experiment with Hs-578T, 2.92 µM (inactive); in the experiment on OVCAR-5, 4.82 µM (inactive); with PC-3, 3.2 µM (inactive); with TK-10 it was 2.88 µM (inactive); in the experiment on RPMI-8226, 1.12 µM (inactive). Further, the GI50 is 2.39 µM (inactive) in the experiment with UACC-62 and 2.13 µM (inactive) in the experiment on SF-539.
As for `O=C1CC(=O)NC(NN2C(=O)/C(=C/c3ccccc3)N=C2c2ccccc2)=N1`, the GI50 in the experiment on CAKI-1, with IGROV-1, in the experiment with OVCAR-8, in the experiment on CCRF-CEM, with SF-295 and in the experiment with SK-MEL-2 was > 100 µM (inactive) throughout. Also, the GI50 in the experiment with HCC 2998, with HT-29, in the experiment with MDA-MB-435, in the experiment on HOP-92, in the experiment on MCF7 and in the experiment on OVCAR-4 was > 100 µM (inactive) throughout. Also, the GI50 in the experiment on Malme-3M, with Hs-578T, in the experiment on OVCAR-5, with PC-3, in the experiment with TK-10 and with RPMI-8226 was > 100 µM (inactive) each time. For the same compound, the GI50 with UACC-62 was 26.7 µM (inactive); in the experiment with SF-539 it was > 100 µM (inactive).
Regarding `O=[N+]([O-])c1ccccc1OCCOc1ccccc1[N+](=O)[O-]`, the GI50 was > 100 µM (inactive) in the experiment on CAKI-1; > 100 µM (inactive) in the experiment with IGROV-1; 64.6 µM (inactive) in the experiment with OVCAR-8; > 100 µM (inactive) in the experiment with CCRF-CEM; > 100 µM (inactive) with SF-295; > 100 µM (inactive) with SK-MEL-2. Besides, the GI50 with HCC 2998 was > 100 µM (inactive); in the experiment on HT-29, > 100 µM (inactive); in the experiment on MDA-MB-435, > 100 µM (inactive); with HOP-92, 71.8 µM (inactive); in the experiment with MCF7, > 100 µM (inactive); with OVCAR-4 it was > 100 µM (inactive). For the same compound, the GI50 in the experiment with Malme-3M, with Hs-578T, in the experiment on OVCAR-5, with PC-3, in the experiment on TK-10 and in the experiment with RPMI-8226 was > 100 µM (inactive) throughout. Also, the GI50 in the experiment with UACC-62 and with SF-539 was > 100 µM (inactive) each time.
